Reference: patent publication US7858738B2, “Synthetic human peptides and pharmaceutical compositions comprising them for the treatment of systemic lupus erythematosus” (Yeda Research and Development Co., Ltd., priority 2001, dated 2010)

What was measured:
PBL of SLE patients [1] = assay: Proliferation of PBL of SLE patients stimulated with the mitogen PHA; type: cell-based, human; details: PBL of one SLE patient; PHA 2 μg/ml; FIG. 5
Protocol: To this end the peptides hCDR1 or hCDR3 were added to cultures of PBL of SLE patients that were stimulated with the mitogen phytohemagglutinin (PHA, 2 μg/ml).

PBL of SLE patients [2] = assay: Proliferative response of PBL of SLE patients to the human 16/6Id mAb; type: cell-based; details: for inhibition of the proliferative responses of PBL to the human 16/6Id mAb / inhibition of the proliferative responses of PBL to human 16/6Id mAb: PBL of one SLE patient; for inhibition of the proliferative responses of PBL to the human 16/6Id mAb: FIG. 6; for inhibition of the proliferative responses of PBL to human 16/6Id mAb: FIG. 7, reversed murine peptides as controls; for Percent Inhibition of proliferation of PBL: highest positive inhibition, peptide 50 or 100 μg/well; for Percent Inhibition of proliferation of PBL, Mean ± SD: mean over the 19 responder SLE patients (positive inhibitions, above 50%); for responders whose PBL proliferation was inhibited (inhibition above 50% considered positive): of the 19 responder SLE patients tested
Protocol: Induction and treatment of experimental SLE. In order to induce experimental SLE, BALB/c mice were immunized with 1-2 μg of the human mAb 16/6Id and boosted 3 weeks later. For the prevention of experimental SLE, mice were given hCDR1 or hCDR3 (mCDR1 or revmCDR1 as control peptide in Example 12) intravenously (i.v.) or s.c. concomitant with the immunization, and were injected weekly thereafter for 5 weeks. Treatment of an established disease started three and a half months following disease induction with the 16/6Id, when clinical manifestations were already observed. In Example 12, mice received 10 weekly injections (i.v. or s.c.) of mCDR1 or revmCDR1 at a dose of 100 μg/mouse. Prevention and treatment of SLE-like disease in (NZB×NZW)F1 mice with the hCDR1 or mCDR1 peptide. For prevention of SLE, mice at the age of 2 months, before disease manifestations are observed, were injected s.c. with hCDR1 (or mCDR1 in Example 12, 250 μg/mouse) once a week for 10 weeks. To treat an established disease, mice at the age of 5-7 months were injected with hCDR1 (in Example 12, mCDR1 s.c., 250 μg/mouse) once a week for 10 weeks. Proliferative Responses. PBL were isolated from heparinized venous blood by Ficoll-Hypaque (Pharmacia) density-gradient centrifugation. All assays were performed, in triplicate, in flat-bottomed microtiter plates (Falcon, Becton Dickinson, Oxmard, Calif., USA) in which 2×10^5 PBL were cultured in enriched RPMI-1640 as described (Dayan et al., 2000). The PBL were exposed to various concentrations (0.1-40 μg/well) of the human anti-DNA 16/6Id mAb with and without the addition of the various CDR-based peptides at a concentration of at least 10-fold excess over that of the 16/6Id. Phytohemagglutinin (PHA; 2 μg/well) was used as a control for culture conditions at each experiment. The cultures were incubated in 7.5% CO2 at 37° C. for 6 days. Eighteen hours before the cells were harvested, [^3H]-thymidine (0.5μ Ci of 5 Ci/mmol) (Nuclear Research Center, Negev, Israel) was added to all cultures. Results are expressed as the mean thymidine incorporation in counts per minute (CPM) of triplicate culture±SD, or as stimulation index (S.I.; the ratio of mean CPM at the optimal concentration of the human 16/6Id to the mean CPM in the presence of medium alone). A S.I.≧2 was considered a positive response (Dayan et al., 2000). Inhibition (the ratio of mean CPM in the presence of the 16/6Id and various CDR-based peptides to the mean CPM with the 16/6Id without the CDR-based peptide) above 50% was considered positive. Induction of Cytokine Production. Mice that were immunized with the human 16/6Id mAb and either treated or not with the CDR-based peptide, were killed at different periods during or after treatment with the peptide. Splenocytes and lymph node cells (LNC) were harvested and incubated (5×10^6/ml) in the presence of the 16/6Id. Supernatants were collected after 48 and 72 h. Assessment of Cytokines in the Supernatants. Supernatants were collected 48 hours following the initiation of the cultures and stored at −70° C. Measurements of IL-2, IL-10, IFN-γ, and TNF-α were performed by ELISA by using the relevant standards, capture and detecting Abs (Pharmingen) according to the manufacturer's instructions. TGF-β was determined by an ELISA. Briefly, plates were coated with the recombinant human TGF-β1 sRIII/Fc chimera (R & D Systems Inc., Minneapolis, Minn., USA), and the second Ab used was the biotinylated anti-human TGF-β1 antibody (R & D Systems Inc.). The substrate solution used was TMB color Reagent (Helix Diagnostics, West Sacramento, Calif.), and enzyme activity was evaluated by using 570- and 630-nm filters. Detection of SLE-Associated Clinical and Pathological Manifestations. Proteinuria was measured semiquantitatively by using Combistix kit (Ames Division, Bayer Diagnostics, Newbury, U.K.). White blood cells (WBC, for leukopenia) were counted after a 10-fold dilution of heparinized blood in distilled water containing 1% acetic acid (vol/vol). […]

PBL of SLE patients [3] = assay: TGF-β secretion by PBL of SLE patients stimulated with the human 16/6Id mAb (ELISA); type: cell-based; details: for secretion of TGF-β by PBL: one representative SLE patient, FIG. 9; for Maximum Up-regulation % (TGF-β secretion): percent secretion above that with 16/6Id alone (mean 636 ± 25 pg/ml = 100%); for Up-regulation of TGF-β %: share of 19 SLE patients with up-regulation
Protocol: For this purpose, supernatants were removed from cultures of PBL of various SLE patients following 48 hours incubation with the human 16/6Id mAb in the absence or presence of the peptides hCDR1 or hCDR3. TGF-β was determined by ELISA according to the manufacturer's instructions. Briefly, Maxisorb plates (Nunc) were coated with recombinant human TGFβsRII/Fc chimera (R&D Systems) diluted in PBS (100 ng/ml). After blocking, cell supernatants were added. After 18 hours incubation the detecting biotinylated anti-human TGF-β antibody (R&D Systems) was added. The substrate solution used was the TMB Colour Reagent (Helix Diagnostics) and enzyme activity was evaluated by the MRX ELISA reader using the 570 nm and 630 nm filters.

Row | Sequence | inhibition of the proliferative responses of the PBL to the mitogen PHA (PBL of SLE patients [1]) | inhibition of the proliferative responses of PBL to the human 16/6Id mAb (PBL of SLE patients [2]) | inhibition of the proliferative responses of PBL to human 16/6Id mAb (PBL of SLE patients [2]) | Percent Inhibition of proliferation of PBL (PBL of SLE patients [2]; SLE patient 1) | Percent Inhibition of proliferation of PBL (PBL of SLE patients [2]; SLE patient 2 (M. D.)) | Percent Inhibition of proliferation of PBL (PBL of SLE patients [2]; SLE patient 3) | Percent Inhibition of proliferation of PBL (PBL of SLE patients [2]; SLE patient 4) | Percent Inhibition of proliferation of PBL (PBL of SLE patients [2]; SLE patient 5) | Percent Inhibition of proliferation of PBL (PBL of SLE patients [2]; SLE patient 6) | Percent Inhibition of proliferation of PBL (PBL of SLE patients [2]; SLE patient 7) | Percent Inhibition of proliferation of PBL (PBL of SLE patients [2]; SLE patient 8 (S. D.)) | Percent Inhibition of proliferation of PBL (PBL of SLE patients [2]; SLE patient 9) | Percent Inhibition of proliferation of PBL (PBL of SLE patients [2]; SLE patient 10) | Percent Inhibition of proliferation of PBL (PBL of SLE patients [2]; SLE patient 11) | Percent Inhibition of proliferation of PBL (PBL of SLE patients [2]; SLE patient 12) | Percent Inhibition of proliferation of PBL (PBL of SLE patients [2]; SLE patient 13) | Percent Inhibition of proliferation of PBL (PBL of SLE patients [2]; SLE patient 14) | Percent Inhibition of proliferation of PBL (PBL of SLE patients [2]; SLE patient 15) | Percent Inhibition of proliferation of PBL (PBL of SLE patients [2]; SLE patient 16) | Percent Inhibition of proliferation of PBL (PBL of SLE patients [2]; SLE patient 17) | also measured
1 | YYCARGLLRGGWNDVDYYGMDV (Human) [hCDR3, peptide based on the CDR3 of the heavy chain of the human 16/6Id mAb] | could not inhibit | inhibited efficiently | did inhibit efficiently | <50% | 75% | <50% | <50% | 87.5% | 80% | 70.4% | 56% | 65% | 71.8% | 72% | 86% | 64% | 74% | 69% | 68% | 77.8% | Percent Inhibition of proliferation of PBL (PBL of SLE patients [2]; SLE patient 18): <50%; Percent Inhibition of proliferation of PBL (PBL of SLE patients [2]; SLE patient 19): 60.8%; Percent Inhibition of proliferation of PBL, Mean ± SD (PBL of SLE patients [2]): 71.82 ± 8.44%; responders whose PBL proliferation was inhibited (inhibition above 50% considered positive) (PBL of SLE patients [2]): 78.9%; secretion of TGF-β by PBL (PBL of SLE patients [3]): significant up-regulation; Maximum Up-regulation % (TGF-β secretion) (PBL of SLE patients [3]): 338 ± 242%; Up-regulation of TGF-β % (PBL of SLE patients [3]): 100 (19/19) %
2 | GYYWSWIRQPPGKGEEWIG (Human) [hCDR1, 19-mer peptide based on the CDR1 of the heavy chain of the human 16/6Id mAb] | could not inhibit | inhibited efficiently | did inhibit efficiently | 62% | 70% | 69% | <50% | 88.5% | 80% | 76% | 58% | 69.5% | 68.2% | <50% | 82% | 63% | 56% | 63% | <50% | 70.5% | Percent Inhibition of proliferation of PBL (PBL of SLE patients [2]; SLE patient 18): 51.5%; Percent Inhibition of proliferation of PBL (PBL of SLE patients [2]; SLE patient 19): 63%; Percent Inhibition of proliferation of PBL, Mean ± SD (PBL of SLE patients [2]): 68.12 ± 9.57%; responders whose PBL proliferation was inhibited (inhibition above 50% considered positive) (PBL of SLE patients [2]): 84.2%; secretion of TGF-β by PBL (PBL of SLE patients [3]): significant up-regulation; Maximum Up-regulation % (TGF-β secretion) (PBL of SLE patients [3]): 305 ± 221%; Up-regulation of TGF-β % (PBL of SLE patients [3]): 100 (19/19) %
